Results on 31 compounds are retold here after patent US20260125400A1, “TYK2 DEGRADERS AND USES THEREOF” (Kymera Therapeutics, Inc., priority 2023, published 2026).

The target of this test is T1, TYK2 (Homo sapiens, UniProt P29597).
T1 construct: Degradation of TYK2 in cells was quantitatively measured using Meso Scale Discovery (MSD) technology; endogenous in cells; host or cells: OCI-LY10
The experiment in a line: TYK2 MSD degradation in OCI-LY10 cells. The conditions noted are these: 4 to 24 hours incubation; for DC50: read-out: TYK2 MSD OCI-LY10 Rel-DC50. The test is classed as cell-based. As for the experimental part: Example 7. TYK2 MSD Degradation
Degradation of TYK2 in cells was quantitatively measured using Meso Scale Discovery (MSD) technology. OCI-LY10 cells were seeded in 96-well plates with a density of 0.4 million cells per well in 100 μl fresh media. Compounds were then added to the assay plates with a final top concentration of 1 to 10 μM in a 1:3 dilution series with total of 9 doses. The assay plates were then incubated for 4 to 24 hours at 37° C. under […]. The assay plates were then centrifuged for 5 minutes, and the cell pellets were treated with 100 μl/well RIPA lysis buffer (Boston Bioproducts, BP-115D) with protease and phosphatase inhibitors (Roche, 05892791001 and 04906837001). To prepare MSD assay plates (MSD, L15XA), the plates were coated with the capture antibody (Santa Cruz Biotechnology, SC-5271) in PBS, at 40 μl/well. The plates were then incubated overnight at 4° C., washed 3 times with 150 μl/well TBST buffer (Cell Signaling Technology, 9997S) and blocked with 150 μl/well blocking buffer (MSD, R93BA-4). Cell lysates were then added to MSD assay plates and the plates were incubated at room temperature for 1 hour. The plates were then washed 3 times with 150 μl/well TBST buffer and 25 μl/well primary detection antibody (Cell Signaling Technology, #9312). The assay plates were then incubated at room temperature for 1 hour, washed 3 times with 150 μl/well TBST buffer, and 25 μl/well secondary detection antibody, SULFO-TAG anti-rabbit antibody (MSD, R32AB-1) were added. The assay plates were then incubated at room temperature for 1 hour, washed 3 times with 150 μl/well TB ST buffer, and 150 μl/well MSD reading buffer (MSD, R92TC-2) were added. The plates were then analyzed by an MSD reader. The data was analyzed by GraphPad Prism and the dose dependent TYK2 degradation was fit using the four-parameter inhibitor vs. response nonlinear regression.
The letter codes for TYK2 DC50 include: A (<1 nM); B (i to <10 nM); C (10 to 100 nM); D (>100 nM); and E (not tested). The letter codes for TYK2 Dmax % include: A (>90%); B (90 to >75%); C (75 to 50%); D (<50%); and E (not tested).

Setting [1] is: TYK2 degradation in OCI-LY10 cells.

Where two headings read alike, the source gives them in different places.

T1 sequence (P29597 whole entry): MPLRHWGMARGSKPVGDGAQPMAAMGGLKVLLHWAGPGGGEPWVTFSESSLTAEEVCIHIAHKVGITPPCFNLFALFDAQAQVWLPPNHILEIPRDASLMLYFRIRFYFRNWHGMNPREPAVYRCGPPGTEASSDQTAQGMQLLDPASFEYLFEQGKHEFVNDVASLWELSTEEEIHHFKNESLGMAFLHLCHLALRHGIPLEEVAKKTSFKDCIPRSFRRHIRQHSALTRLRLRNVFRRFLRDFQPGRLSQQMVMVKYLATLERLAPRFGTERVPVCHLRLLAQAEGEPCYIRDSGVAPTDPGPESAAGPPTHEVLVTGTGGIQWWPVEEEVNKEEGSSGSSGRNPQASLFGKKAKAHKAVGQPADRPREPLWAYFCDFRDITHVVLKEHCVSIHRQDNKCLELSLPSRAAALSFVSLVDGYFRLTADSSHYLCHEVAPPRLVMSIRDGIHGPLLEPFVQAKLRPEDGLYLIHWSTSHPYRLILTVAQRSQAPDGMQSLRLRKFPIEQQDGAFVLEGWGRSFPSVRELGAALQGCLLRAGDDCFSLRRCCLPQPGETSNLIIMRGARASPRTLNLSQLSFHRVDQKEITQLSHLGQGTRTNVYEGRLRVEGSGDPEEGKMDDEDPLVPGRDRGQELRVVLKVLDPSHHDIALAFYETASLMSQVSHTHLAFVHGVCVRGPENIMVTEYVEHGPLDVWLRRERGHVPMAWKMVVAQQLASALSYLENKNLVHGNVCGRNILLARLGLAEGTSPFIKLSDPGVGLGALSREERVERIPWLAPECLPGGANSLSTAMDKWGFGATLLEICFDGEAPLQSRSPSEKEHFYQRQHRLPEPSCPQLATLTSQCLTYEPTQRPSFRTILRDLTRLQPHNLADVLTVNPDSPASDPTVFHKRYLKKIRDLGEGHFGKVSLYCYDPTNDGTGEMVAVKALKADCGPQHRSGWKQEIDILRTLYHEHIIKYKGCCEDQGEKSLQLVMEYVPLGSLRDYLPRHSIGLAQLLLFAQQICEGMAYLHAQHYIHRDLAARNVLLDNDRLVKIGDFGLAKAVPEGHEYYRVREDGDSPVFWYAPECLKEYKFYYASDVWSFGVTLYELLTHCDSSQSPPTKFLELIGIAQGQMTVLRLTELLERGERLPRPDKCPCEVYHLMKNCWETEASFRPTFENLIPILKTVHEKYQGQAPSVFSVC

In the case of `CNc1cc(N2CCc3c(-c4ccc(CN5CCN(CCC6CCN(c7ccc(Cl)c(C8CCC(=O)NC8=O)c7)CC6)CC5)cn4)cccc32)nn2c(C(=O)NC3CC3F)cnc12` (mixture of isomers) [I-438], under “OCI-LY10 cells”, the “TYK2 MSD OCI-LY10 Dmax %” value is “C (C (75 to 50%))” and the DC50 was under 10 nM.
The matching figures for `CNc1cc(N2CCc3c(-c4ccc(N5CCN(CC6CCN(c7ccc(Cl)c(C8CCC(=O)NC8=O)c7)CC6)CC5)cn4)cccc32)nn2c(C(=O)NC3CC3F)cnc12` (mixture of isomers) [I-442]: “C (C (75 to 50%))” and under 10 nM.
Take `CNc1cc(N2CCc3c(-c4ccc(N5CC6(CCN(Cc7ccc(C8CCC(=O)NC8=O)c(Cl)c7)CC6)C5)cn4)cccc32)nn2c(C(=O)NC3CC3F)cnc12` (mixture of isomers) [I-445]: where the note is “OCI-LY10 cells”, the “TYK2 MSD OCI-LY10 Dmax %” value is recorded as “B (B (90 to >75%))” and the DC50 was under 10 nM.
The matching figures for `CNc1cc(N2CCc3c(-c4ccc(N5CCC6(CC5)CN(C(=O)c5ccc(C7CCC(=O)NC7=O)c(Cl)c5)C6)cn4)cccc32)nn2c(C(=O)NC3CC3F)cnc12` (mixture of isomers) [I-447]: “C (C (75 to 50%))” and under 10 nM.
As to `CNc1cc(N2CCc3c(-c4ccc(CN5CCC(N6CCN(c7ccc8c(c7)n(C)c(=O)n8C7CCC(=O)NC7=O)CC6)CC5)cn4)cccc32)nn2c(C(=O)N[C@@H]3C[C@@H]3F)cnc12` (some centres unmarked) [I-1], under setting [1], the “TYK2 MSD OCI-LY10 Dmax %” value is given as “B (B (90 to >75%))” and the DC50 was under 1 nM.
Consider `CNc1cc(N2CCc3c(-c4cc(CN5CCC(c6ccc7c(c6)n(C)c(=O)n7C6CCC(=O)NC6=O)C(F)(F)C5)ccn4)cccc32)nn2c(C(=O)NC3CC3)cnc12` (centres unmarked) [I-4], for which, under setting [1], the “TYK2 MSD OCI-LY10 Dmax %” value is given as “D (D (<50%))” and the DC50 is over 100 nM.
With `CNc1cc(N2CCc3c(N4CCC(CN5CCC(N6CCN(c7ccc8c(c7)n(C)c(=O)n8C7CCC(=O)NC7=O)CC6)C(F)(F)C5)CC4)cccc32)nn2c(C(=O)NC3CC3)cnc12` (centres unmarked) [I-5], under setting [1], the “TYK2 MSD OCI-LY10 Dmax %” value was “C (C (75 to 50%))” and the DC50 is under 10 nM.
The matching figures for `CNc1cc(N2CCc3c(N4CC(CN5CCC(N6CCN(c7ccc8c(c7)n(C)c(=O)n8C7CCC(=O)NC7=O)CC6)C(F)(F)C5)C4)cccc32)nn2c(C(=O)NC3CC3)cnc12` (centres unmarked) [I-12]: “C (C (75 to 50%))” and under 1 nM.
With `CNc1cc(N2CCc3c(CN4CCC(N5CCN(c6ccc7c(c6)n(C)c(=O)n7C6CCC(=O)NC6=O)CC5)C(F)(F)C4)cccc32)nn2c(C(=O)NC3CC3)cnc12` (centres unmarked) [I-15], under setting [1], the “TYK2 MSD OCI-LY10 Dmax %” value was “C (C (75 to 50%))” and the DC50 was under 1 nM.
For `CNc1cc(N2CCc3c(CN4CCC(N5CCC6(CCN(c7ccc8c(c7)n(C)c(=O)n8C7CCC(=O)NC7=O)CC6)CC5)C(F)(F)C4)cccc32)nn2c(C(=O)NC3CC3)cnc12` (centres unmarked) [I-19], under setting [1], the “TYK2 MSD OCI-LY10 Dmax %” value is recorded as “B (B (90 to >75%))” and the half-maximal degradation concentration (DC50) was under 10 nM.
The matching figures for `CNc1cc(N2CCc3c(-c4cc(CN5CCC6(CC5)CN(c5ccc7c(c5)n(C)c(=O)n7C5CCC(=O)NC5=O)C6)ccn4)cccc32)nn2c(C(=O)NC3CC3)cnc12` (centres unmarked) [I-21]: “D (D (<50%))” and under 10 nM.
On to `CNc1cc(N2CC3(CCN(C4CCN(c5cccc6c5n(C)c(=O)n6C5CCC(=O)NC5=O)CC4)CC3)c3ccccc32)nn2c(C(=O)NC3CC3)cnc12` (centres unmarked) [I-23], for which, under setting [1], the “TYK2 MSD OCI-LY10 Dmax %” value was “D (D (<50%))” and the DC50 is over 100 nM.
For `CNc1cc(N2CC3(CCN(CC4CCN(c5ccc6c(c5)n(C)c(=O)n6C5CCC(=O)NC5=O)CC4)CC3)c3ccccc32)nn2c(C(=O)NC3CC3)cnc12` (centres unmarked) [I-24], under setting [1], the “TYK2 MSD OCI-LY10 Dmax %” value is reported as “D (D (<50%))” and the half-maximal degradation concentration (DC50) is over 100 nM.
`CNc1cc(N2CC3(CCN(CC4CCN(c5cccc6c5n(C)c(=O)n6C5CCC(=O)NC5=O)CC4)CC3)c3ccccc32)nn2c(C(=O)NC3CC3)cnc12` (centres unmarked) [I-25]: under setting [1], the “TYK2 MSD OCI-LY10 Dmax %” value was “D (D (<50%))” and the DC50 was over 100 nM.
The matching figures for `CNc1cc(N2CCc3c(-c4ccc(CN5CC6(CCN(C(=O)c7ccc(Cl)c(N8CCC(=O)NC8=O)c7)CC6(F)F)C5)cn4)cccc32)nn2c(C(=O)NC3CC3)cnc12` [I-29]: “B (B (90 to >75%))” and under 10 nM.
As to `CNc1cc(N2CCc3c(N4CCN(C5CCC6(CC5)CCN(c5ccc7c(c5)n(C)c(=O)n7C5CCC(=O)NC5=O)CC6)CC4)cccc32)nn2c(C(=O)NC3CC3)cnc12` (centres unmarked) [I-31], under setting [1], the “TYK2 MSD OCI-LY10 Dmax %” value is reported as “D (D (<50%))” and the DC50 is under 10 nM.
On to `CNc1cc(N2CCc3c(N4CCN(CC5CC6(CCN(C(=O)c7ccc(Cl)c(N8CCC(=O)NC8=O)c7)CC6)C5)CC4)cccc32)nn2c(C(=O)NC3CC3)cnc12` [I-32], for which, under setting [1], the “TYK2 MSD OCI-LY10 Dmax %” value was “C (C (75 to 50%))” and the half-maximal degradation concentration (DC50) is under 10 nM.
Turning to `CNc1cc(N2CC3(CCN(Cc4ccc5c(c4)n(C)c(=O)n5C4CCC(=O)NC4=O)CC3)c3ccccc32)nn2c(C(=O)NC3CC3)cnc12` (centres unmarked) [I-34], under setting [1], the “TYK2 MSD OCI-LY10 Dmax %” value is “D (D (<50%))” and the DC50 is over 100 nM.
In the case of `CNc1cc(N2CCc3c(N4CCN(CC5CCC6(CC5)CCN(c5ccc7c(c5)n(C)c(=O)n7C5CCC(=O)NC5=O)CC6)CC4)cccc32)nn2c(C(=O)NC3CC3)cnc12` (centres unmarked) [I-39], under setting [1], the “TYK2 MSD OCI-LY10 Dmax %” value was “D (D (<50%))” and the DC50 was under 10 nM.
Consider `CNc1cc(N2CCc3c(N4CCN(CCC5CCN(c6ccc7c(c6)n(C)c(=O)n7C6CCC(=O)NC6=O)CC5)CC4)cccc32)nn2c(C(=O)NC3CC3)cnc12` (centres unmarked) [I-40], for which, under setting [1], the “TYK2 MSD OCI-LY10 Dmax %” value is given as “D (D (<50%))” and the 50% degradation concentration (DC50) was over 100 nM.
On to `CNc1cc(N2CC3(CCN(CCc4cccc5c4n(C)c(=O)n5C4CCC(=O)NC4=O)CC3)c3ccccc32)nn2c(C(=O)NC3CC3)cnc12` (centres unmarked) [I-41], for which, under setting [1], the “TYK2 MSD OCI-LY10 Dmax %” value was “D (D (<50%))” and the DC50 is over 100 nM.
For `CNc1cc(N2CC3(CCN(c4ccc5c(c4)n(C)c(=O)n5C4CCC(=O)NC4=O)CC3)c3ccccc32)nn2c(C(=O)NC3CC3)cnc12` (centres unmarked) [I-42], under setting [1], the “TYK2 MSD OCI-LY10 Dmax %” value is “D (D (<50%))” and the DC50 is over 100 nM.
As for `CNc1cc(N2CCc3c(C4CCCN(CC5CN(c6ccc7c(c6)n(C)c(=O)n7C6CCC(=O)NC6=O)C5)C4)cccc32)nn2c(C(=O)NC3CC3)cnc12` (centres unmarked) [I-45], under setting [1], the “TYK2 MSD OCI-LY10 Dmax %” value was “C (C (75 to 50%))” and the DC50 is under 1 nM.
For `CNc1cc(N2CCc3c(-c4ccc(CN5CCC(N6CCC7(CC6)CN(c6ccc8c(c6)n(C)c(=O)n8C6CCC(=O)NC6=O)C7)C(F)(F)C5)cn4)cccc32)nn2c(C(=O)NC3CC3)cnc12` (centres unmarked) [I-47], under setting [1], the “TYK2 MSD OCI-LY10 Dmax %” value is on record as “B (B (90 to >75%))” and the DC50 was under 10 nM.
The matching figures for `CNc1cc(N2CC3(CCN(c4cccc5c4n(C)c(=O)n5C4CCC(=O)NC4=O)CC3)c3ccccc32)nn2c(C(=O)NC3CC3)cnc12` (centres unmarked) [I-51]: “D (D (<50%))” and over 100 nM.
As to `CNc1cc(N2CC3(CCN(Cc4cccc5c4n(C)c(=O)n5C4CCC(=O)NC4=O)CC3)c3ccccc32)nn2c(C(=O)NC3CC3)cnc12` (centres unmarked) [I-52], under setting [1], the “TYK2 MSD OCI-LY10 Dmax %” value is “D (D (<50%))” and the 50% degradation concentration (DC50) is over 100 nM.
In the case of `CNc1cc(N2CC3(CCN(CCc4ccc5c(c4)n(C)c(=O)n5C4CCC(=O)NC4=O)CC3)c3ccccc32)nn2c(C(=O)NC3CC3)cnc12` (centres unmarked) [I-53], under setting [1], the “TYK2 MSD OCI-LY10 Dmax %” value is listed as “D (D (<50%))” and the DC50 was over 100 nM.
Regarding `CNc1cc(N2CCc3c(-c4ccc(CN5CCC6(CC5)CCN(c5cccc7c5n(C)c(=O)n7C5CCC(=O)NC5=O)CC6)cn4)cccc32)nn2c(C(=O)NC3CC3)cnc12` (centres unmarked) [I-54], under setting [1], the “TYK2 MSD OCI-LY10 Dmax %” value is reported as “C (C (75 to 50%))” and the half-maximal degradation concentration (DC50) is under 10 nM.
With `CNc1cc(N2CCc3c(N4CCN(CC5CCC6(CC5)CCN(C(=O)c5ccc(Cl)c(N7CCC(=O)NC7=O)c5)CC6)CC4)cccc32)nn2c(C(=O)NC3CC3)cnc12` [I-55], under setting [1], the “TYK2 MSD OCI-LY10 Dmax %” value is given as “D (D (<50%))” and the DC50 is over 100 nM.
Take `CNc1cc(N2CCc3c(C4CCN(CC5CCC6(CC5)CCN(C(=O)c5ccc(Cl)c(N7CCC(=O)NC7=O)c5)CC6)CC4)cccc32)nn2c(C(=O)NC3CC3)cnc12` [I-56]: under setting [1], the “TYK2 MSD OCI-LY10 Dmax %” value is listed as “C (C (75 to 50%))” and the DC50 was under 10 nM.
For the compound `CNc1cc(N2CCc3c(-c4ccc(CN5CCC6(CCN(C(=O)c7ccc(Cl)c(N8CCC(=O)NC8=O)c7)CC6)C(F)(F)C5)cn4)cccc32)nn2c(C(=O)NC3CC3)cnc12` [I-57], under setting [1], the “TYK2 MSD OCI-LY10 Dmax %” value is recorded as “B (B (90 to >75%))” and the DC50 is under 10 nM.
